# Measured values: patent US12059400B2, “Medical compound” (VERA SALUS RICERCA S.R.L., priority 2017, dated 2024)
# Assays:
# [1] = system: human ovarian carcinoma cells (OVCAR-3); assay: Cell proliferation, crystal violet method; format: cell-based
# [2] = system: human skin fibroblasts (WS1); assay: Cell proliferation of normal cells, crystal violet method; format: cell-based; settings: at the indicated concentrations (not given); FIG. 17
# Procedure: The compound according to the invention, and in particular the synthetic quercetin derivatives described and illustrated herein were investigated in vitro by using human tumour cells and assessing their impact on the tumour proliferative capacity, with regard to the tumours described above. In particular, the following human tumour cell lines were assessed experimentally: 1) HCT116, colon adenocarcinoma cells; 2) H1299, lung adenocarcinoma cells; 3) A375, melanoma cells, and 4) A431, squamous skin cell carcinoma; 5) 786-0, renal carcinoma cells; 6) PC3, prostate carcinoma cells; 7) BT549, mammary carcinoma cells; 8) CAL27, tongue carcinoma cells (belonging to the head-and-neck carcinomas); 9) HepG2, hepatocellular carcinoma cells; 10) PANC-1, pancreas carcinoma cells; 11) T24, bladder carcinoma cells; 12) OVCAR-3, ovarian carcinoma cells. In addition, a normal human cell line, WS1 (skin fibroblasts) was also treated with the novel synthetic compounds. Cell proliferation was quantified by the crystal violet method with a spectrophotometer. In short, after acquiring serial images (0, 24 and 48 hrs) with the EVOS XL Cell Imaging System microscope (Thermo Fisher Scientific), the cells imaged at 48 hrs were fixed with paraformaldehyde (4%) and stained with Crystal Violet (1%). Then, the specific absorbance (λ=590 nm) at 48 hrs was measured with a spectrophotometer (Infinite®200 PRO, Tecan). Data analysis was carried out by using ad-hoc Excel files for graphical representation and statistical processing (t-test). […] This tool allows cell growth to be monitored from electrical impedance-derived quantitative values (the so-called Cell Index) measured by tiny electrodes located at the base of the culture wells. Proliferation is monitored for several days (5-7) by setting a Cell Index per minute measure on the instrument. The data are analysed by processing various parameters calculated by the dedicated software, such as the cell duplication time, the slope and the Max Cell Index.
Substance,"OVCAR-3 cell growth vs vehicle control ([1]; 60 μM, FIG. 11a, 11b)","IC50 ([1]; crystal violet, spectrophotometer, read-out: IC50 anti-proliferative effect, OCC - (OVCAR)) [µM]",proliferation of normal human skin fibroblasts (WS1) vs vehicle control [2]
"2-(3,4-dihydroxyphenyl)-5,7-dihydroxy-4-oxo-4H-chromen-3-yl palmitate [Compound 5]",significantly inhibit,79.2,–
"2-(3,4-Dihydroxyphenyl)-3-hexyloxy-5,7-dihydroxy-4H-chromen-4-one [Compound 2]",–,–,do not disrupt
